Target: T1, calpain-I isolated from human erythrocytes (Homo sapiens, UniProt P07384)
T1 construct: calpain-I—isolated from human erythrocytes; purchased Calbiochem 208713; host or cells: human erythrocytes (native tissue isolate)
T1 sequence (P07384 1-714): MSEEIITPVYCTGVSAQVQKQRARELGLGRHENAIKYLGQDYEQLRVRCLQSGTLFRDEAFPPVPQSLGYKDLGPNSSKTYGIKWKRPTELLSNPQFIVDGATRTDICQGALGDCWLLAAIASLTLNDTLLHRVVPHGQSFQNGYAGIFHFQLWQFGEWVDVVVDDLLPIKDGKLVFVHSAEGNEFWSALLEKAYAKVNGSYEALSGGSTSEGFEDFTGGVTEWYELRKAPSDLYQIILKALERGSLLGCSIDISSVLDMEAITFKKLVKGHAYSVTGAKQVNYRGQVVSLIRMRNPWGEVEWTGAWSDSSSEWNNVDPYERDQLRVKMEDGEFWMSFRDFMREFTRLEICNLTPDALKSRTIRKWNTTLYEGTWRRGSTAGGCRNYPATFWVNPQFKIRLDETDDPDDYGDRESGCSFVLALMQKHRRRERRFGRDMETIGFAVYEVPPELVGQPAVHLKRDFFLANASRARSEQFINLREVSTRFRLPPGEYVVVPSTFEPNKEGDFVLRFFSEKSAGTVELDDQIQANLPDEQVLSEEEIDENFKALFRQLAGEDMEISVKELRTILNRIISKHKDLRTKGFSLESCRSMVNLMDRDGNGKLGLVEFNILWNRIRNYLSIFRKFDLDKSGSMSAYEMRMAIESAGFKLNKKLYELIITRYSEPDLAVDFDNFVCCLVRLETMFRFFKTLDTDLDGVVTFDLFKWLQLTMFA
T1 sequence (P04632 1-268 partner): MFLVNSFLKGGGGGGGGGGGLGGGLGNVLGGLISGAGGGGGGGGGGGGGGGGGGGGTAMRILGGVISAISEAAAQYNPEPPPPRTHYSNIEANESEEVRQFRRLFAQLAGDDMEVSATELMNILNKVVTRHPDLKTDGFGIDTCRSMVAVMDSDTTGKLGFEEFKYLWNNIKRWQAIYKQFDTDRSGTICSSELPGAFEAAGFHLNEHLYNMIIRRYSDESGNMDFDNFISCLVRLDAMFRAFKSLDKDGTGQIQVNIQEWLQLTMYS
Experiment: Calpain I enzyme inhibition, kinetic fluorescence assay
Type: biochemical
Details: apparent Ki from IC50 by Cheng-Prussoff; pH 7.3, room temperature
Description: The following solutions and buffers were employed: • HBS (for 40 ml): 800 μl 1M HEPES; 2.16 ml 100 mM KCl; 4.8 ml 1M NaCl; 3.59 ml 5% glucose; 60 μl 1M MgSO4; 400 μl 100 mM Na pyruvate, 28.19 ml water; pH 7.2-7.5. • lysis buffer (for 20 ml): 400 μl 1M Tris pH 8.2; 2.74 ml 1M NaCl; 520 μl 0.5M EDTA; 2 ml 10% triton X-100; 0.8 ml (=1:25) CompletePlus (1 tablet/2 ml H2O); 200 μl 100 mM Pefabloc; 13.34 ml water, pH 8.2. • TBST (10×) (for 1I): 100 mM Tris (12.1 g); 1.5M NaCl (87 g); 1% Tween 20 (10 g), adjusted to pH 8. I. Enzyme Inhibition In Vitro: • Testing for blockade of the corresponding enzymic activities was carried out by means of kinetic fluorescence assays (excitation 390 nm, emission 460 nm). • Apparent Ki values were calculated from the experimentally determined IC50 values by the Cheng-Prussoff relation assuming a reversible competitive enzyme inhibition. The Km values of the substrates used under the assay conditions indicated above were: 90 μM (Z-Phe-Arg-AMC, cathepsin B), 10 μM (Z-Gly-Pro-Arg-AMC, cathepsin K), 2 μM (Z-Phe-Arg-AMC, cathepsin L), and 30 μM (Z-Val-Val-Arg-AMC, cathepsin S). • The indicated Ki values are averages of the inhibition constants calculated on the basis of 2 to 4 independent dose-effect plots. • The following assays were used: • 1. Calpain I: • 20 nM calpain-I—isolated from human erythrocytes (Calbiochem #208713), 100 μM Suc-Leu-Tyr-AMC (Bachem #I-1355) as substrate in buffer with 62 mM imidazole, 0.3 mM CaCl2, 0.10% CHAPS, 0.05% BSA, 1 mM DTT at pH 7.3 and room temperature. • 2. Cathepsin B: • 0.25 nM cathepsin B—isolated from human liver (Calbiochem #219362), 100 μM Z-Phe-Arg-AMC (Bachem #I-1160) as substrate 50 mM MES, 2 mM EDTA, 0.05% Brij 35, 2.5 mM L-cysteine, pH 6.0, room temperature. • 3. Cathepsin K: • 3 nM cathepsin K—activated from recombinant human procathepsin K from E. coli (Calbiochem #342001), 10 μM Z-Gly-Pro-Arg-AMC (Biomol #P-142) as substrate in 50 mM MES, 2 mM EDTA, 0.05% Brij 35, 2.5 mM L-cysteine, pH 6.0, room temperature. • 4. Cathepsin L: • 1 nM cathepsin L—isolated from human liver (Calbiochem #219402), 2 μM Z-Phe-Arg-AMC (Bachem #I-1160) as substrate in 50 mM MES, 2 mM EDTA, 0.05% Brij 35, 2.5 mM L-cysteine, pH 6.0, room temperature. • 5. Cathepsin S: • 0.5 nM recombinant human cathepsin S from E. coli (Calbiochem #219343), 20 μM Z-Val-Val-Arg-AMC (Bachem #I-1540) as substrate in 50 mM MES, 2 mM EDTA, 0.05% Brij 35, 2.5 mM L-cysteine, pH 6.0, room temperature. • The results of the in vitro determination are indicated in Table 2. The following abbreviations are used in Table 2: • The “Calpain activity” column, ++ stands for a calpain Ki (Ki(calpain)) of ≦40 nM, + means: 40 nM<Ki(Calpain)≦100 nM, 0 means 100 nM<Ki(Calpain)≦1 μM, − means 1 μM<Ki(Calpain)≦10 μM, −− means Ki(Calpain)>10 μM. • The “Sel. cat. B” column indicates the Ki(cathepsin B)/Ki(calpain) ratio. In this connection, ++ means a Ki(cathepsin B)/Ki(calpain) ratio of ≧30 and + means≦10≦Ki(cathepsin B)/Ki(calpain)<30. • The “Sel. cat. K” column indicates the Ki(cathepsin K)/Ki(calpain) ratio. In this connection, ++ means a Ki(cathepsin K)/Ki(calpain) ratio of ≧30 and + means 10≦Ki(cathepsin K)/Ki(calpain)<30. • The “Sel. cat. L” column indicates the Ki(cathepsin L)/Ki(calpain) ratio. In this connection, ++ means a Ki(cathepsin L)/Ki(calpain) ratio of ≧50 and + means 30≦Ki(cathepsin L)/Ki(calpain)<50. • The “Sel. cat. S” column indicates the Ki(cathepsin S)/Ki(calpain) ratio. […]

Ki: > 10 µM
SMILES: NC(=O)C1(C(Cc2ccccc2)NC(=O)c2cccnc2-n2ccc(-c3cccc(C(F)(F)F)c3)n2)OCCO1 (stereo not shown) [Compound I-2, N-{1-[2-(Aminocarbonyl)-1,3-dioxolan-2-yl]-2-phenylethyl}-2-{3-[3-(trifluoromethyl)phenyl]-1H-pyrazol-1-yl}nicotinamide]
